In patent US9408795B2, “Method for enhancing the growth and fullness of hair” (Avon Products, Inc., priority 2011, dated 2016):

Test system: FGFR1 gene expression
Test: PCR to assess FGFR1 gene expression in human dermal papilla cells
Format: cell-based
Details: 48-hour incubation, normalized to 18S, vs DMSO control
Experimental: Method: PCR to assess FGFR1 gene expression in human dermal papilla cells, following administration of L-4-Thiazolylalanine, Pouzolzia petandra, or cis-6-nonenol.
Human dermal papilla cells (Cell Applications, CA) were plated at 5000 cells/cm^2 in collagen-coated 6-well culture plates in the Papilla Cell Growth Medium (Cell Application, CA) overnight in humidified atmosphere of 5% CO2 at 37° C. When dermal papilla cells reached 80-90% confluence, the medium was replaced with fresh medium and the compounds (L-4-Thiazolylalanine, Pouzolzia petandra, or cis-6-nonenol) dissolved in DMSO were added to the wells in duplicate at a concentration of 0.002% or 0.001%. DMSO was used a vehicle control. Following 48-hour incubation, the medium was removed and the cells were collected in the Lysis/Binding Solution (Ambion, Tex.) after being washed with cold PBS.
Total RNA was extracted from dermal papilla cells by using the RNAqueous kit (Ambion, Tex.) according to the manufacture's instruction. RNA was quantified on the Nanodrop ND-1000 Spectrophotometer (NanoDrop Technologies, DE) and the confirmation of integrity was determined using the Agilent Bioanalyzer before RNA was further processed for cDNA preparation. […]
RNA abundance of FGFR1 was measured using quantitative Real-Time PCR. […] All samples were run in triplicate and normalized to 18S and expressed as a percentage of the control.

Compound | Percent Inhibition of FGFR1 Expression (0.001% (w/v)) | Percent Inhibition of FGFR1 Expression (0.002% (w/v))
N[C@@H](Cc1cscn1)C(=O)O [L-4-Thiazolylalanine, 4-L-thiazolylalanine] | 59.13% | 
CC/C=C\CCCCCO [cis-6-nonenol] |  | 28.25%
